Reference: patent publication US6413947B1, “Anilide derivative, production and use thereof” (Takeda Chemical Industries, Ltd., priority 1997, dated 2002)

Columns and labels:
human MCP-1 receptor = target: T1, human MCP-1 receptor (Homo sapiens, UniProt P41597); assay: Determination of inhibitory activity on MCP-1 receptor (125I-MCP-1 binding to CHO cells expressing human MCP-1 receptor); settings: Test Compound 1 μM, 125I-human recombinant MCP-1 100 pM, room temperature 40 minutes
T1 construct: expressed in transfected cells; host or cells: CHO cells, transformant CHO(MCR); FERM BP-5446; IFO 50461
Method: According to a method described in Working Example 1 of JP-A-238688/1997, human MCP-1 receptor gene was prepared. Said gene was inserted to plasmid pMCR, which was introduced into CHO cell. The resultant transformant [CHO(MCR); FERM BP-5446; IFO 50461] was used for the following experiment.
On 96 well culture plate (Packard Instrument Company), 7×10^4 cell/well of CHO cells expressing human MCP-1 receptor were inoculated, and the cells were cultivated at 37° C., overnight. The medium was removed by means of suction. To the residue were added a buffer solution (D-MEM containing 0.5% BSA and 20 mM HEPES; pH7.4), Test Compound (1 μM) and ^125I-human recombinant MCP-1 (Amersham; final concentration: 100 pM), and the mixture was allowed to react at room temperature for 40 minutes. The buffer solution was removed by means of suction and washed twice with PBS. To the residue was added MICROSCINT-20 (Packard Instrument Company), radioactivity of ^125I (cpm) was determined with Topcount (Packard).
The count number (cpm) (non-specific binding) of ^125I which binds to CHO cells (mock) having a vector was taken from the count number (cpm) of ^125I which binds to CHO cells expressing human MCP-1 receptor to obtain the amended count number, which was converted into 100%, and inhibition rate of Test Compound (whose number is referred to in the following Examples) against MCP-1 binding to its receptor was calculated.

human CCR5 = target: T2, human CCR5 (Homo sapiens, UniProt P51681); assay: CCR5 antagonistic activity ([125I]-RANTES binding to CHO/CCR5 cells); settings: Test Compound 1 μM, 100 pM [125I]-RANTES, room temperature 30 minutes; for inhibition at 1 µM: read-out: Inhibition Rate (%) to CCR5 binding
T2 construct: expressed in transfected cells; host or cells: CHO-K1 cells, geneticin-resistant clone CHO/CCR5
Method: Cloning of CCR5 gene was carried out by PCR (polymerase chain reaction) from human spleen cDNA. With using 0.5 ng of spleen cDNA (Toyobo, QUICK-Clone cDNA) as template, PCR was performed in DNA Thermal Cycler 480 (Perkin-Elmer) (reaction conditions: 30 cycles of 95° C. for 1 minute, 60° C. for 1 minute, and 75° C. for 5 minutes) by adding primer set, 5′-CAGGATCCGATG […]-3′ (25 pmol) and 5′-TCTAGATCACAAGCC CACAGATATTTCCTGCTCC-3′ (25 pmol), which were designed referring to nucleotide sequence of CCR5 gene reported by Samson et al. (Biochemistry, 35(11), 3362-3367 (1996)) and by using TaKaRa EX Taq (Takara Shuzo). The resultant PCR product was subjected to agarose gel electrophoresis to collect about 1.0 kb DNA fragment, which was subjected to Original TA Cloning Kit (Funakoshi) to carry out cloning of CCR5 gene.
The plasmid obtained in the above (1) was digested with restriction enzymes XbaI (Takara Shuzo) and BamHI (Takara Shuzo) and subjected to agarose gel electrophoresis to collect about 1.0 kb DNA fragment. The DNA fragment was mixed with plasmid pcDNA3.1 (Funakoshi) for expression in animal cells, said plasmid being digested with XbaI and BamHI, and they were ligated with DNA Ligation Kit Ver.2 (Takara Shuzo). The resulting plasmid was subjected to transformation of competent cell of E. coli JM109 (Takara Shuzo) to obtain plasmid pCKR5.
CHO-K1 cells were grown in 750 ml of tissue culture flask (Becton Dickinson) using Ham's F12 medium (Nihon Pharmaceutical) containing 10% fetal calf serum (Life Tech Oriental) and took off with 0.5 g/L trypsin-0.2 g/L EDTA (Life Tech Oriental). The cells were washed with PBS (Life Tech Oriental), centrifuged (1000 rpm, 5 minutes), and suspended in PBS. With using Gene Pulser (Bio-Rad Laboratories), DNA was introduced into the cells under the conditions shown below. That is, to the cuvette of 0.4 cm gap were added 8×10^6 cells and 10 μg of plasmid pCKR5 for expression of human CCR5, and electroporation was carried out under 0.25 kV of voltage and 960 μF of capacitance. The cells were transferred into Ham's F12 medium (Nihon Pharmaceutical) containing 10% fetal calf serum, and cultivated for 24 hours. The cells were again took off and centrifuged, and suspended in Ham's F12 medium (Nihon Pharmaceutical) containing 10% fetal calf serum and 500 μg/ml of geneticin (Life Tech Oriental). The suspension was diluted to give 1 cells/ml of the suspension, which was inoculated on 96 well plate (Becton Dickinson) to give geneticin resistant cells. The resulting geneticin resistant cells were cultivated in 96 well plate (Becton Dickinson), and cells expressing CCR5 were selected from the geneticin resistant cells. That is, in assay buffer (Ham's F12 medium containing 0.5% BSA and 20 mM HEPES (Wako Pure Chemical, pH7.2) to which was added 200 pM of [^125I]-RANTES (Amersham) as ligand, binding reaction was carried out at room temperature for 40 minutes, and the buffer was washed with cooled PBS. To the buffer was added 50 μl/well of 1M NaOH, and the mixture was stirred. Radioactivity was determined with γ-counter to select CHO/CCR5 cells which specifically bind to the ligand.
The CHO/CCR5 were inoculated on 96 well microplate (5×10^4 cells/well) and cultivated for 24 hours. […] Radio-activity was determined with Top-Count Micro Scintillation Counter (Packard Instrument, Inc.). […]

HIV-1 BA-L [1] = assay: Inhibitory effect on HIV-1 infection to MAGI-CCR5 cell; type: cell-based; settings: 2 days
Method: The plasmid where β-galactosidase gene was ligated downstream of HIV-1 LTR was introduced into CD4 positive HeLa cell, to which human CCR5 was further introduced to obtain transformant MAGI-CCR5. By using said transformant MAGI-CCR5, degree of HIV-1 infection was calculated from β-galactosidase activity (blue color due to decomposition of 5-bromo-4-chloro-3-indolyl-β-D-galactopyranoside). Specifically, MAGI-CCR5 cells were suspended in DMEM medium containing 10% serum to prepare 5×10^4 cells/ml suspension. To each well of 96 well plate was inoculated 200 μl of the suspension, and the cells were cultivated at 37° C. overnight. The medium was removed by means of suction, and to the residue was added 100 μl of the above medium containing 1.6 μM of Test Compound 96 or 0.064 μM of Test Compound 248 and 100 μl of the above medium containing 300PFU of HIV-1 BA-L cells. The cells were cultivated at 37° C. for 2 days. The medium was removed by means of suction. To the residue was added 200 μl of cell fixative (PBS containing 1% formaldehyde and 0.2% glutaraldehyde), and the mixture was allowed to stand at room temperature for 5 minutes and washed twice with PBS. […] The number of blue cells was counted by microscope and defined as the number of cells infected with HIV-1.

HIV-1 BA-L [2] = assay: Inhibitory effect on HIV-1 infection to human PBMC; type: cell-based; settings: human PBMC stimulated with PHA and IL-2, 7 days
Method: From normal person human peripheral blood mononuclear cells (PBMC) were separated, and the cells were stimulated with 10 μg/ml of PHA (Phytohemaglutinin) and 20 U/ml of interleukin-2 (IL-2) for 3 days. The cells were suspended in RPMI-1640 medium containing 20% serum to prepare 1×10^6/ml suspension. To the suspension were infected HIV-1 BA-L cells (20 ng as an amount of p24 antigen), and viruses were absorbed at 37° C. for 2 hours. The cells were washed and suspended in RPMI-1640 medium containing 20% serum and IL-2 20 U/ml to prepare 1×10^5/ml suspension. To the PBMC suspension was added the same amount of a solution which contains 2.0 μM of Test Compound 96 or 0.32 μM of Test Compound 248, and the cells were cultivated at 37° C. for 7 days in carbon dioxide gas incubator. The amount of p24 antigen in supernatant of the cultivated medium was determined by enzyme-linked immunosorbent assay (ELISA) and defined as degree of HIV-1 infection.

T2 sequence (P51681 whole entry): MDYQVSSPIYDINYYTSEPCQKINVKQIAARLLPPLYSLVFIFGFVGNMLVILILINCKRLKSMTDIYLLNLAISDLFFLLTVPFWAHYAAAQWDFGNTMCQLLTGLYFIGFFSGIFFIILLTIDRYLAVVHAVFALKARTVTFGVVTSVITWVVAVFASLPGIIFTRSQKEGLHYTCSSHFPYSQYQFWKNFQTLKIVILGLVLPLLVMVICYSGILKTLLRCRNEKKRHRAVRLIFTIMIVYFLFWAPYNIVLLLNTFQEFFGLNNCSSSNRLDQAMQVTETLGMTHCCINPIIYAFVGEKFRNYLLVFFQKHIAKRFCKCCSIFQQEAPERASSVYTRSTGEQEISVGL
T1 sequence (P41597 whole entry): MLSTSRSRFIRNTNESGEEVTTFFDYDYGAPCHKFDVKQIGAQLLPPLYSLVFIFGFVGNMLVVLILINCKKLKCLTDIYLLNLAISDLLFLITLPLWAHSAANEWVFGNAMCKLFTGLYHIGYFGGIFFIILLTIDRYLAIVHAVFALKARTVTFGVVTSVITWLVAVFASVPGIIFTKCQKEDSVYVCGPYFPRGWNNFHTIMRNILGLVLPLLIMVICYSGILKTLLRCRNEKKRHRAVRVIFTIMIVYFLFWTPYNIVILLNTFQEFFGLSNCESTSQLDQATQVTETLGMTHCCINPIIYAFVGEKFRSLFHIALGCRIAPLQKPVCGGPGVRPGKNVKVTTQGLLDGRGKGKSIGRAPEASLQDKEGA

In the case of `Cc1ccc(-c2ccc3c(c2)C=C(C(=O)Nc2ccc(CN(C)C4CCOCC4)cc2)CCO3)cc1` [Compound 128, N-(4—(N-methyl-(N-tetrahydropyran-4-yl)aminomethyl)phenyl)-7—(4-methylphenyl)-2,3-dihydro-1-benzoxepine-4-carboxamide], the melting point is reported as 162 to 163 °C and the “Inhibition Rate (%) against MCP-1 binding to its receptor” value (human MCP-1 receptor) is reported as 80%.
In the case of `Cc1ccc(-c2ccc(/C=C/C(=O)Nc3ccc(CP4(=O)CCCCC4)cc3)s2)cc1` [Compound 209, (E)-N-(4-pentamethylenephosphorylmethylphenyl)-3-[5—(4-methylphenyl)thiophen-2-yl]acrylic amide], the “Inhibition Rate (%) to CCR5 binding” value (human CCR5) is reported as 80%.
In the case of `CC(C)(C)c1ccc(-c2ccc3c(c2)C=C(C(=O)Nc2ccc(CP4(=O)CCCCC4)cc2)CCO3)cc1` [Compound 180, N-(4—(pentamethylene)phosphorylmethylphenyl)-7—(4-tert-butylphenyl)-2,3-dihydro-1-benzoxepine-4-carboxamide], the “Inhibition Rate (%) to CCR5 binding” value (human CCR5) is reported as 99%.
In the case of `CCOc1ccc(-c2ccc3c(c2)C=C(C(=O)Nc2ccc(C[N+](C)(C)C4CCOCC4)cc2)CCO3)cc1` [Compound 250, N-(4-(((7-(4-ethoxyphenyl)-2,3-dihydro-1-benzoxepin-4-yl)carbonyl)amino)benzyl)-N,N-dimethyl-N-(4-tetrahydropyranyl)ammonium chloride], the inhibition at 1 µM (human CCR5) is reported as 96%.
With `Cc1ccc(-c2ccc3c(c2)C=C(C(=O)Nc2ccc(C[N+]4(C)CCCCC4)cc2)CCO3)cc1` [Compound 96, 1—(N-(7—(4-methylphenyl)-2,3-dihydro-1-benzoxepin-4-carbonyl)-4-aminobenzyl)-1-methylpiperidinium iodide] the “inhibition on HIV-1 infection (number of blue cells)” value (HIV-1 BA-L [1]; 100 μl medium containing 1.6 μM of Test Compound plus 100 μl medium with 300PFU HIV-1 BA-L) was 92% and the “inhibition on HIV-1 infection (p24 antigen in supernatant, ELISA)” value (HIV-1 BA-L [2]; same amount of a solution containing 2.0 μM of Test Compound added) was 96%.
In the case of `Cc1ccc(-c2ccc3c(c2)C=C(C(=O)Nc2ccc(C[N+](C)(C)C4CCOCC4)cc2)CCC3)cc1` [Compound 248, N,N-dimethyl-N-(4-(((2-(4-methylphenyl)-6,7-dihydro-5H-benzocyclohepten-8-yl)carbonyl)amino)benzyl)-N-(4-tetrahydropyranyl)ammonium chloride], the inhibition at 1 µM (human CCR5) is reported as 99%, the “inhibition on HIV-1 infection (number of blue cells)” value (HIV-1 BA-L [1]; 100 μl medium containing 0.064 μM of Test Compound plus 100 μl medium with 300PFU HIV-1 BA-L) is reported as 100% and the “inhibition on HIV-1 infection (p24 antigen in supernatant, ELISA)” value (HIV-1 BA-L [2]; same amount of a solution containing 0.32 μM of Test Compound added) is reported as 74%.
For “N-((7—(4-methylphenyl)-2,3-dihydro-1-benzoxepin-4-carbonyl)-2—(4-aminophenyl)ethyl)-N-methylpiperidinium iodide [Compound 100]”, the “Inhibition Rate (%) to CCR5 binding” value (human CCR5) was 100%.
